Paper doi:10.1101/2023.11.24.568596v1 (biorxiv, 2023)

Experiments:
Settings in all cases: binder
[1] = target: CaMK2d (Homo sapiens, UniProt Q13557)
[2] = target: T1, CaMK4 (Homo sapiens, UniProt Q16566)
T1 sequence (Q16566 1-473): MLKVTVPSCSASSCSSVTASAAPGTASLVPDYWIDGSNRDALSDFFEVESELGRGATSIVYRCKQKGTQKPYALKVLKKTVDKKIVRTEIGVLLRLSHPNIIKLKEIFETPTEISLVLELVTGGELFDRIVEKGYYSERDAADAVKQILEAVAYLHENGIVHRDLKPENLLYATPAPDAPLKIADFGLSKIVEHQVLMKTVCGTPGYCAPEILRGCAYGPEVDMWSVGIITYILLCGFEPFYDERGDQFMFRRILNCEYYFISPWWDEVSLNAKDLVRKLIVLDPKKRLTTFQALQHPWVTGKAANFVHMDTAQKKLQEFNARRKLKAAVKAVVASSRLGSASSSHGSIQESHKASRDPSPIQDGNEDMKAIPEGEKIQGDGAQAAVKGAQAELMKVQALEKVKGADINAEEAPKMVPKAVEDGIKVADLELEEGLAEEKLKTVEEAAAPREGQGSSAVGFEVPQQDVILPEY

[3] = target: T2, DCAMKL1 (Homo sapiens, UniProt O15075)
T2 sequence (O15075 1-740): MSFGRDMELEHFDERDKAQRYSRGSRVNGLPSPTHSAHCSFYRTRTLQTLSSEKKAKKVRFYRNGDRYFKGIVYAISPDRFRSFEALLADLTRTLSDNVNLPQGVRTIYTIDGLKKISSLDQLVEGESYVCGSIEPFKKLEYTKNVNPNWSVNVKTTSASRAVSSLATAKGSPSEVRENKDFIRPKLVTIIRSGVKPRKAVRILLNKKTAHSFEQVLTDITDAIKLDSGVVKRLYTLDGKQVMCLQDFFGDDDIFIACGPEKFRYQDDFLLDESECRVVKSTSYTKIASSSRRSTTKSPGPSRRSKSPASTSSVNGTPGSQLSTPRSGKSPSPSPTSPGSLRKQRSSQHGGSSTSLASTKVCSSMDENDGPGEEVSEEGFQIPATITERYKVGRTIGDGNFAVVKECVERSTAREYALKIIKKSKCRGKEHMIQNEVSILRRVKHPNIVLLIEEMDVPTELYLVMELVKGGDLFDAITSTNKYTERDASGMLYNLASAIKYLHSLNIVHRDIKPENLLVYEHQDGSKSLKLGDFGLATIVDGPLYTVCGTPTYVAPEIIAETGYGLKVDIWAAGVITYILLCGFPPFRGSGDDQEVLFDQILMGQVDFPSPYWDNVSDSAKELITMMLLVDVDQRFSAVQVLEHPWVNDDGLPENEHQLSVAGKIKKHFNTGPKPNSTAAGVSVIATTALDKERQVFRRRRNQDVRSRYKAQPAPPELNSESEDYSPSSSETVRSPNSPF

[4] = target: T3, NEK2 (Homo sapiens, UniProt P51955)
T3 sequence (P51955 1-445): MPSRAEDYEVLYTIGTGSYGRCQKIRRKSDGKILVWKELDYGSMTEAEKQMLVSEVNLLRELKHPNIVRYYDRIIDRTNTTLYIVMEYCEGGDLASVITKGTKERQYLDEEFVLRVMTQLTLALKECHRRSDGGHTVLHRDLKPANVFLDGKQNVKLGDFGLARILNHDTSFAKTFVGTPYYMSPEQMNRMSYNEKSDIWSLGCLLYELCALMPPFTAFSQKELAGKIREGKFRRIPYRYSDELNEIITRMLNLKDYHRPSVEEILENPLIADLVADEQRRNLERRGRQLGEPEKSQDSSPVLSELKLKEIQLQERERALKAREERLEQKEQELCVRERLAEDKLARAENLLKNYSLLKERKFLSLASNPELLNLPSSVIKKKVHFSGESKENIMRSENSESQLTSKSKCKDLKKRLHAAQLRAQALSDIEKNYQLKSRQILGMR

[5] = target: EphA2 (Homo sapiens, UniProt P29317)
[6] = target: MST4 (Homo sapiens, UniProt Q9P289)
[7] = target: CLK1 (Homo sapiens, UniProt P49759)
[8] = target: MST3 (Homo sapiens, UniProt Q9Y6E0)
[9] = target: DAPK3 (Homo sapiens, UniProt O43293)
Chain of DAPK3 (O43293 whole entry): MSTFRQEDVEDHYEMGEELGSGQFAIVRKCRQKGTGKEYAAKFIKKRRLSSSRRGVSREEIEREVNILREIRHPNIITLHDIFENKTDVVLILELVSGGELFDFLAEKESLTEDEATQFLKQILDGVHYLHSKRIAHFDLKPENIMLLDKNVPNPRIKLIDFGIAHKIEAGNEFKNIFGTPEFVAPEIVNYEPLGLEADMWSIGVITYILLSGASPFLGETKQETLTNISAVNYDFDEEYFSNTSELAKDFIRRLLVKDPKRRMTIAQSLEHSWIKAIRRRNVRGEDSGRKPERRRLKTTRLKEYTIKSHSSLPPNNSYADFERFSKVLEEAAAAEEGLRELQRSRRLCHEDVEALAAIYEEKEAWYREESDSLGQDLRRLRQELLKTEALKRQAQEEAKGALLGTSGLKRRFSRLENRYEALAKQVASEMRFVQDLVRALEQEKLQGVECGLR

Chain of MST3 (Q9Y6E0 whole entry): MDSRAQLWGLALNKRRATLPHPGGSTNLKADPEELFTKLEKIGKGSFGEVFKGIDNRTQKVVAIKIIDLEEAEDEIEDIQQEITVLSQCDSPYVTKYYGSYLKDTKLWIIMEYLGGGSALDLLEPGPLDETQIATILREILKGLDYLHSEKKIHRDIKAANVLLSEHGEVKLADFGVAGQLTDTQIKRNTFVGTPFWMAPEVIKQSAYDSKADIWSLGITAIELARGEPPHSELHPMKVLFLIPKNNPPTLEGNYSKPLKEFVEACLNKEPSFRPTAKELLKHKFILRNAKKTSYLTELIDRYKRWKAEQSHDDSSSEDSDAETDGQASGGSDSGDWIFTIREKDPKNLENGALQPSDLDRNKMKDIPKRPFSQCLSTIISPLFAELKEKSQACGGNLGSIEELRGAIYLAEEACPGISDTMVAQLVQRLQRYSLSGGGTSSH
Chain of EphA2 (P29317 whole entry): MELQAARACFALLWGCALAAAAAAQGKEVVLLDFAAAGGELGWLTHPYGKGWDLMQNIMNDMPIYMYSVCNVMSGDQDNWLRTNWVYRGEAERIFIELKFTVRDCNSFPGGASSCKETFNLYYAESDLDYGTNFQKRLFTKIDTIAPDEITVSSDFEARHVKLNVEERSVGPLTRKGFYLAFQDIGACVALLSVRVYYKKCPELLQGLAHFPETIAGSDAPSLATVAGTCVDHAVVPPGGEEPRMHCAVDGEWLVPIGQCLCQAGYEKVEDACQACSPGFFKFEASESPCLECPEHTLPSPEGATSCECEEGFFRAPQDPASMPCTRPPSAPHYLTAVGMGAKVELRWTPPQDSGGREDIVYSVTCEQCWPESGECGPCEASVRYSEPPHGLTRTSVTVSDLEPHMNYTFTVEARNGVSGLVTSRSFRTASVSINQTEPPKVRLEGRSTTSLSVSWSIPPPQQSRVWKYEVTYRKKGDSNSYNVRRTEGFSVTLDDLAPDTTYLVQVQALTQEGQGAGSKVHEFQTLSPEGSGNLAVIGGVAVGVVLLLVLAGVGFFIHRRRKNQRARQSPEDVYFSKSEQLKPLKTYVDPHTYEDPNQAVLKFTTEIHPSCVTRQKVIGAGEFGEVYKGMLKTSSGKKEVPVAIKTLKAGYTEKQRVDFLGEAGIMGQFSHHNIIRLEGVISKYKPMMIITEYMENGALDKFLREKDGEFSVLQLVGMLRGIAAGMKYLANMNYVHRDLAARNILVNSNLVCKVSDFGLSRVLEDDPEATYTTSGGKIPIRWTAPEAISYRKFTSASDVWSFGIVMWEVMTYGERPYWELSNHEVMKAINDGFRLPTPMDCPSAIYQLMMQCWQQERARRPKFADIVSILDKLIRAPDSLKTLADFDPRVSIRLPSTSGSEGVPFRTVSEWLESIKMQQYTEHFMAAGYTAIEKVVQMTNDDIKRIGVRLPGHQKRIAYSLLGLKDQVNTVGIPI
Chain of MST4 (Q9P289 whole entry): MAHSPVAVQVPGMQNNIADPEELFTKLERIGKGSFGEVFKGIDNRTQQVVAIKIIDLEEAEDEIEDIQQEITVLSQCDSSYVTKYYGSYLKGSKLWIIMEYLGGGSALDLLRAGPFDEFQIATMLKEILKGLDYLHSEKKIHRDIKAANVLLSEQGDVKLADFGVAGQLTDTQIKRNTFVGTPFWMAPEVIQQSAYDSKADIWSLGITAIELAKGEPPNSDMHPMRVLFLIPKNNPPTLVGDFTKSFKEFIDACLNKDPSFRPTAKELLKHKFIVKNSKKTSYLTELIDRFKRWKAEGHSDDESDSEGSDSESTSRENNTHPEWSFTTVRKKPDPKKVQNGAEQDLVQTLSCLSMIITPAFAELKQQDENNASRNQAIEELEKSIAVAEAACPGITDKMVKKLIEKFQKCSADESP
Chain of CaMK2d (Q13557 whole entry): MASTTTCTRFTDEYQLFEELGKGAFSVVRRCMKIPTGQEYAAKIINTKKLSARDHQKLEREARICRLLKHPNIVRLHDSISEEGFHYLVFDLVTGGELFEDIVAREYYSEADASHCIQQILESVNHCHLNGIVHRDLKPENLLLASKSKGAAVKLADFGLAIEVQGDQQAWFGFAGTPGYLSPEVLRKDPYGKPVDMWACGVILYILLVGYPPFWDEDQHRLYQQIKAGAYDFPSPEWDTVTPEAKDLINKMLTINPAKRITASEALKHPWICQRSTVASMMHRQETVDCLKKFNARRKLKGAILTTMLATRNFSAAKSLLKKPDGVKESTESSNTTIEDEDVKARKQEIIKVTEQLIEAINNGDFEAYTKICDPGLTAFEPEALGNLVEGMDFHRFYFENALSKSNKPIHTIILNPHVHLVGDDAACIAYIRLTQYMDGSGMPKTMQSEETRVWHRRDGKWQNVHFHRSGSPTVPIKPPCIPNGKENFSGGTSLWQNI
Chain of CLK1 (P49759 whole entry): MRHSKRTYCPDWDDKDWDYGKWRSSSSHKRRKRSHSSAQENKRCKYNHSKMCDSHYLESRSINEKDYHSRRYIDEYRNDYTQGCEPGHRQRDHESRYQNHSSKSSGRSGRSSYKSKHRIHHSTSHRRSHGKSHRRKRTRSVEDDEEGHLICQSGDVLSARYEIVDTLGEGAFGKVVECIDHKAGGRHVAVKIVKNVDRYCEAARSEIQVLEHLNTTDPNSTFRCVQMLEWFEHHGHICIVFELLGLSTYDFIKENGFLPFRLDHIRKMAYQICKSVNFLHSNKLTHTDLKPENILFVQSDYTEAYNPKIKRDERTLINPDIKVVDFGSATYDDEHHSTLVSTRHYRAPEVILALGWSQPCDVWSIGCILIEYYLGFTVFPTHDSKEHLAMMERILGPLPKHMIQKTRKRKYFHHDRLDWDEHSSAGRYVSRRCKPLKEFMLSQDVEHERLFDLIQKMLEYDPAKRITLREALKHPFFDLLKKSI

CNc1ncc2cc(-c3ccc(-c4cccc(C)n4)cc3Cl)c(=O)n(CCCCN)c2n1 [compound 20, MRLW5]
ΔTm MRLW5 (20) [1]: 0.1 °C
ΔTm MRLW5 (20) [2]: 2.9 °C
ΔTm MRLW5 (20) [3]: 1.0 °C
ΔTm MRLW5 (20) [4]: 4.6 °C
ΔTm MRLW5 (20) [5]: 3.5 °C
ΔTm MRLW5 (20) [6]: 11.4 °C
ΔTm MRLW5 (20) [7]: 0.3 °C
ΔTm MRLW5 (20) [8]: 11.7 °C
ΔTm MRLW5 (20) [9]: 1.4 °C

CNc1ncc2cc(-c3ccc(-c4cccc(C)n4)cc3Cl)c(=O)n(CCC3CCNCC3)c2n1 [compound 22, 6-(2-Chloro-4-(6-methylpyridin-2-yl)phenyl)-2-(methylamino)-8-(2-(piperidin-4-yl)ethyl)pyrido[2,3-d]pyrimidin-7(8H)-one]
ΔTm 22 [1]: 0.0 °C
ΔTm 22 [2]: 4.8 °C
ΔTm 22 [3]: 0.7 °C
ΔTm 22 [4]: 6.6 °C
ΔTm 22 [5]: 2.3 °C
ΔTm 22 [6]: 7.8 °C
ΔTm 22 [7]: -1.6 °C
ΔTm 22 [8]: 10.5 °C
ΔTm 22 [9]: 2.4 °C

CNc1ncc2cc(-c3ccc(-c4cccc(C)n4)cc3Cl)c(=O)n(C[C@H]3CC[C@H](N)CC3)c2n1 [compound 23, 23]
ΔTm 23 [1]: -0.2 °C
ΔTm 23 [2]: 6.9 °C
ΔTm 23 [3]: 4.6 °C
ΔTm 23 [4]: 6.9 °C
ΔTm 23 [5]: 3.2 °C
ΔTm 23 [6]: 8.2 °C
ΔTm 23 [7]: 0.8 °C
ΔTm 23 [8]: 10.8 °C
ΔTm 23 [9]: 2.8 °C

Cc1cccc(-c2ccc(-c3cc4cnc(NC(CO)CO)nc4n(CCCCN)c3=O)c(Cl)c2)n1 [compound 24, 8-(4-Aminobutyl)-6-(2-chloro-4-(6-methylpyridin-2-yl)phenyl)-2-((1,3-dihydroxypropan-2-yl)amino)pyrido[2,3-d]pyrimidin-7(8H)-one]
ΔTm MR24 (24) [1]: -0.2 °C
ΔTm MR24 (24) [2]: 1.2 °C
ΔTm MR24 (24) [3]: -2.0 °C
ΔTm MR24 (24) [4]: 5.6 °C
ΔTm MR24 (24) [5]: 0.6 °C
ΔTm MR24 (24) [6]: 9.1 °C
ΔTm MR24 (24) [7]: -0.4 °C
ΔTm MR24 (24) [8]: 11.0 °C
ΔTm MR24 (24) [9]: 0.2 °C

Cc1cccc(-c2ccc(-c3cc4cnc(NCCCc5ccc(N)cc5)nc4n(CCCCN)c3=O)c(Cl)c2)n1 [compound 25, 8-(4-Aminobutyl)-2-((3-(4-aminophenyl)propyl)amino)-6-(2-chloro-4-(6-methylpyridin-2-yl)phenyl)pyrido[2,3-d]pyrimidin-7(8H)-one]
ΔTm 25 [1]: -0.2 °C
ΔTm 25 [2]: 5.4 °C
ΔTm 25 [3]: 0.1 °C
ΔTm 25 [4]: 8.8 °C
ΔTm 25 [5]: 3.3 °C
ΔTm 25 [6]: 9.6 °C
ΔTm 25 [7]: 1.4 °C
ΔTm 25 [8]: 11.8 °C
ΔTm 25 [9]: 0.8 °C

Cc1cccc(-c2ccc(-c3cc4cnc(NCCCN5CCOCC5)nc4n(CCCCN)c3=O)c(Cl)c2)n1 [compound 26, MR26]
ΔTm MR26 (26) [1]: -0.1 °C
ΔTm MR26 (26) [2]: 2.2 °C
ΔTm MR26 (26) [3]: -2.0 °C
ΔTm MR26 (26) [4]: 5.9 °C
ΔTm MR26 (26) [5]: 4.2 °C
ΔTm MR26 (26) [6]: 11.2 °C
ΔTm MR26 (26) [7]: -0.1 °C
ΔTm MR26 (26) [8]: 12.4 °C
ΔTm MR26 (26) [9]: 0.0 °C
